Laboratory results as given in PubChem BioAssay (NCI).
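GI50 is the concentration that inhibits growth by half. TGI is the concentration that stops growth completely.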

Experiments:
Test in all cases: NCI-60 cell line screen, 384-well format
SF-295 CNS = tested on: SF-295 CNS
DU-145 prostate = tested on: DU-145 prostate
A549 NSCLC = tested on: A549 NSCLC
MDA-MB-435 melanoma = tested on: MDA-MB-435 melanoma
MOLT-4 leukemia = tested on: MOLT-4 leukemia
SK-OV-3 ovarian = tested on: SK-OV-3 ovarian
SF-268 CNS = tested on: SF-268 CNS
OVCAR-8 ovarian = tested on: OVCAR-8 ovarian
HOP-62 NSCLC = tested on: HOP-62 NSCLC
786-0 renal = tested on: 786-0 renal
HS 578T breast = tested on: HS 578T breast
SK-MEL-28 melanoma = tested on: SK-MEL-28 melanoma
COLO 205 colon = tested on: COLO 205 colon
MDA-MB-231 breast = tested on: MDA-MB-231 breast
SF-539 CNS = tested on: SF-539 CNS
NCI-H23 lung = tested on: NCI-H23 lung
LOX IMVI melanoma = tested on: LOX IMVI melanoma
NCI-H460 NSCLC = tested on: NCI-H460 NSCLC
UACC-62 melanoma = tested on: UACC-62 melanoma
IGROV1 ovarian = tested on: IGROV1 ovarian
CAKI-1 renal = tested on: CAKI-1 renal
NCI-H226 lung = tested on: NCI-H226 lung
RXF 393 renal = tested on: RXF 393 renal
MALME-3M melanoma = tested on: MALME-3M melanoma
MCF7 breast = tested on: MCF7 breast
OVCAR-3 ovarian = tested on: OVCAR-3 ovarian
HCC-2998 colon = tested on: HCC-2998 colon
HL-60(TB) leukemia = tested on: HL-60(TB) leukemia
U251 glioblastoma = tested on: U251 glioblastoma

`O=C(O)CSc1cc(NS(=O)(=O)c2ccc(Br)cc2)c2ccccc2c1O` gave a GI50 (SF-295 CNS) of 6.61 µM, a TGI (SF-295 CNS) of 19 µM and a GI50 (DU-145 prostate) of 2.37 µM. The TGI (DU-145 prostate) was 5.24 µM, the GI50 (A549 NSCLC) was 11.6 µM and the TGI (A549 NSCLC) was 23.8 µM. For the same molecule, the GI50 (MDA-MB-435 melanoma) was 2 µM, the TGI (MDA-MB-435 melanoma) was 3.43 µM and the GI50 (MOLT-4 leukemia) was 1.96 µM. For the same molecule, the TGI (MOLT-4 leukemia) was 3.39 µM, the GI50 (SK-OV-3 ovarian) was 5.22 µM and the TGI (SK-OV-3 ovarian) was 16.6 µM. It also gave a GI50 (SF-268 CNS) of 2.4 µM, a TGI (SF-268 CNS) of 6.02 µM and a GI50 (OVCAR-8 ovarian) of 1.92 µM. The TGI (OVCAR-8 ovarian) was 3.97 µM, the GI50 (HOP-62 NSCLC) was 3.02 µM and the TGI (HOP-62 NSCLC) was 8.45 µM. The GI50 (786-0 renal) was 6.17 µM, the TGI (786-0 renal) was 18.3 µM and the GI50 (HS 578T breast) was 1.63 µM. The TGI (HS 578T breast) was 3.04 µM, the GI50 (SK-MEL-28 melanoma) was 2.25 µM and the TGI (SK-MEL-28 melanoma) was 4.05 µM. For the same molecule, the GI50 (COLO 205 colon) was 3.12 µM, the TGI (COLO 205 colon) was 9.58 µM and the GI50 (MDA-MB-231 breast) was 1.89 µM. It also gave a TGI (MDA-MB-231 breast) of 3.72 µM, a GI50 (SF-539 CNS) of 2.2 µM and a TGI (SF-539 CNS) of 3.72 µM. For the same molecule, the GI50 (NCI-H23 lung) was 1.82 µM, the TGI (NCI-H23 lung) was 3.94 µM and the GI50 (LOX IMVI melanoma) was 1.79 µM. It also gave a TGI (LOX IMVI melanoma) of 3.26 µM, a GI50 (NCI-H460 NSCLC) of 13.5 µM and a TGI (NCI-H460 NSCLC) of 26.3 µM. For the same molecule, the GI50 (UACC-62 melanoma) was 1.91 µM, the TGI (UACC-62 melanoma) was 3.33 µM and the GI50 (IGROV1 ovarian) was 2.69 µM. For the same molecule, the TGI (IGROV1 ovarian) was 6.51 µM, the GI50 (CAKI-1 renal) was 10.9 µM and the TGI (CAKI-1 renal) was 22.8 µM. It also gave a GI50 (NCI-H226 lung) of 6.7 µM, a TGI (NCI-H226 lung) of 18.5 µM and a GI50 (RXF 393 renal) of 1.75 µM. For the same molecule, the TGI (RXF 393 renal) was 3.44 µM, the GI50 (MALME-3M melanoma) was 1.95 µM and the TGI (MALME-3M melanoma) was 3.38 µM. The GI50 (MCF7 breast) was 1.62 µM, the TGI (MCF7 breast) was 3.15 µM and the GI50 (OVCAR-3 ovarian) was 0.404 µM. For the same molecule, the TGI (OVCAR-3 ovarian) was 1.69 µM, the GI50 (HCC-2998 colon) was 11.7 µM and the TGI (HCC-2998 colon) was 23.9 µM. The GI50 (HL-60(TB) leukemia) was 1.82 µM, the TGI (HL-60(TB) leukemia) was 3.22 µM and the GI50 (U251 glioblastoma) was 2.55 µM. For the same molecule, the TGI (U251 glioblastoma) was 6.16 µM.
